Data published in US20240228463A1, “SODIUM CHANNEL INHIBITORS AND METHODS OF DESIGNING SAME” (Genentech, Inc., priority 2021, published 2024).

Biological target: T1, hNaV1.7 (Homo sapiens, UniProt Q15858)
T1 construct: expressed in transfected cells
Assay: Patch voltage clamp electrophysiology (EP), Syncropatch 384PE, Nav1.7 in CHO cells;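 also: Nav1.7 stably expressed from cDNA in CHO cells, holding potential of −50 mV kept for the entire experiment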
Type: cell-based
Details: holding potential −50 mV, inhibition based on 7.5 min compound incubation, read-out: hNaV1.7 EP_SP

T1 sequence (Q15858 1-1977 isoform Q15858-3): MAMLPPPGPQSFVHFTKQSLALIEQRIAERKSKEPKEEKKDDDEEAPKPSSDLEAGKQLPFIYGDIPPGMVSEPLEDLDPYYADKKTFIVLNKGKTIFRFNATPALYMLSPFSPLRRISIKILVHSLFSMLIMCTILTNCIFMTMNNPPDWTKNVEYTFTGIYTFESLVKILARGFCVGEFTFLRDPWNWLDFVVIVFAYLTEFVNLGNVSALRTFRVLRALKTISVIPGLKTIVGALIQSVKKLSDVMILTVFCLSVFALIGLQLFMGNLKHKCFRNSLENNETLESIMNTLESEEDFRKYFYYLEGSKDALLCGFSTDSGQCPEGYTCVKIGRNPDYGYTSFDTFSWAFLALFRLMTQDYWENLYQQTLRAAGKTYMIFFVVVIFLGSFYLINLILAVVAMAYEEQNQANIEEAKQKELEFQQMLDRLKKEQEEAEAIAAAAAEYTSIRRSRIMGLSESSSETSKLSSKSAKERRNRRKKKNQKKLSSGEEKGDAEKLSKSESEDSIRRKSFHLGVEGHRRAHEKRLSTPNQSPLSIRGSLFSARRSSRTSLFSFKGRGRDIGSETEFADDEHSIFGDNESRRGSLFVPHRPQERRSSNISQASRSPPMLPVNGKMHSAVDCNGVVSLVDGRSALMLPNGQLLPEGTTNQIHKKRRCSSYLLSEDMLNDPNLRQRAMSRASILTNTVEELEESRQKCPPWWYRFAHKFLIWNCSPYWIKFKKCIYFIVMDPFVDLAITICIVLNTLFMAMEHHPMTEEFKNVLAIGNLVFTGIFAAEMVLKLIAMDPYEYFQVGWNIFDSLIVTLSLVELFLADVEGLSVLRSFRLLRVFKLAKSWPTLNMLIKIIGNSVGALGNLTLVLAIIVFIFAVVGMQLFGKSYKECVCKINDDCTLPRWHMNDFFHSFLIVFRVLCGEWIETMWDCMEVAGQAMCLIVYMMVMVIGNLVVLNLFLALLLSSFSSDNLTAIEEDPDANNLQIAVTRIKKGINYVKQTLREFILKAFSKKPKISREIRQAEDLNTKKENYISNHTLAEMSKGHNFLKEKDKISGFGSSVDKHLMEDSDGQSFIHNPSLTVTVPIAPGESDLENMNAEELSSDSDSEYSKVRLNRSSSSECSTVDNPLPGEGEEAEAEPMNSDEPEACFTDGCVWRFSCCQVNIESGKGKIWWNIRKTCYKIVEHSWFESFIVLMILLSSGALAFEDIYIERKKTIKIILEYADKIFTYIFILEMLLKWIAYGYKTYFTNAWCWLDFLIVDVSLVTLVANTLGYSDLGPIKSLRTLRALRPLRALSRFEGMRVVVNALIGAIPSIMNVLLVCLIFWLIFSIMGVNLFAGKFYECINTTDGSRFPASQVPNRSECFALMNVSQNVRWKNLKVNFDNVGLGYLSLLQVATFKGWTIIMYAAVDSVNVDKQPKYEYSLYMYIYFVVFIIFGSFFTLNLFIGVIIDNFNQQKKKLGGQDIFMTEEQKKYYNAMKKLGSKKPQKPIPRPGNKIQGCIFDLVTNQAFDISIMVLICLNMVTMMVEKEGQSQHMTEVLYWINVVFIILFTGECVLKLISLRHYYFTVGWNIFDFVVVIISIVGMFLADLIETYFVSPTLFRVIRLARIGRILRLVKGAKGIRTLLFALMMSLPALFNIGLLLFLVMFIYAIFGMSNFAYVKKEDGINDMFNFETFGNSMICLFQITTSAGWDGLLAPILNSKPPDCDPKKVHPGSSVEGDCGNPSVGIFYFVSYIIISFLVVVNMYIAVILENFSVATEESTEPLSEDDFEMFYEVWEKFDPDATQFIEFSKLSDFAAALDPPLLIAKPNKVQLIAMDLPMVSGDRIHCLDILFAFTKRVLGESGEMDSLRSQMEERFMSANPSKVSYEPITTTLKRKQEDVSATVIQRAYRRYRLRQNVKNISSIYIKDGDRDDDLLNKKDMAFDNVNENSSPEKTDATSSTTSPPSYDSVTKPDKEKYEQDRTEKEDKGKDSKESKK

| IC50 | SMILES |
| --- | --- |
| 620 nM | NCC1CN(S(=O)(=O)NC(=O)c2cc(C3CC3)c(OCC3CCCC3)cc2F)CCO1 (stereo not shown) [Example 330, N-((2-(aminomethyl)morpholino)sulfonyl)-4-(cyclopentylmethoxy)-5-cyclopropyl-2-fluorobenzamide] |
| 140 nM | CN(C)[C@H]1CCCC[C@@H]1OC1CCN(S(=O)(=O)NC(=O)c2cc(C3CC3)c(OCC3CCCC3)cc2F)CC1 [Example 331, 4-(cyclopentylmethoxy)-5-cyclopropyl-N-((4-(((1S,2S)-2-(dimethylamino)cyclohexyl)oxy)piperidin-1-yl)sulfonyl)-2-fluorobenzamide] |
| 220 nM | CN(C)[C@H]1CCCC[C@@H]1Nc1ccc(S(=O)(=O)Nc2nccs2)c(F)c1 [Example 332, 4-(((1S,2S)-2-(dimethylamino)cyclohexyl)amino)-2-fluoro-N-(thiazol-2-yl)benzenesulfonamide] |
| 65 nM | CN(C)[C@H]1CCCC[C@@H]1Nc1ccc(S(=O)(=O)Nc2nc3ccc(OCC4CCCC4)c(Cl)c3s2)c(F)c1 [Example 333, N-(7-chloro-6-(cyclopentylmethoxy)benzo[d]thiazol-2-yl)-4-(((1S,2S)-2-(dimethylamino)cyclohexyl)amino)-2-fluorobenzenesulfonamide] |
